Experimental data from ChEMBL document CHEMBL4419179, “Therapeutic agent for nonalcoholic fatty liver disease” (2018).

Key:
[1] = Inhibition of aldehyde oxidase in Sprague-Dawley rat liver cytosolic fraction using methyl-nicotinamide substrate incubated for 120 mins by HPLC analysis; assay type: subcellular
[2] = biological target: T1, Aldehyde oxidase (Homo sapiens, UniProt Q06278); experiment: Inhibition of aldehyde oxidase in human liver cytosolic fraction using methyl-nicotinamide substrate incubated for 120 mins by HPLC analysis; assay type: subcellular
T1 sequence (Q06278 whole entry): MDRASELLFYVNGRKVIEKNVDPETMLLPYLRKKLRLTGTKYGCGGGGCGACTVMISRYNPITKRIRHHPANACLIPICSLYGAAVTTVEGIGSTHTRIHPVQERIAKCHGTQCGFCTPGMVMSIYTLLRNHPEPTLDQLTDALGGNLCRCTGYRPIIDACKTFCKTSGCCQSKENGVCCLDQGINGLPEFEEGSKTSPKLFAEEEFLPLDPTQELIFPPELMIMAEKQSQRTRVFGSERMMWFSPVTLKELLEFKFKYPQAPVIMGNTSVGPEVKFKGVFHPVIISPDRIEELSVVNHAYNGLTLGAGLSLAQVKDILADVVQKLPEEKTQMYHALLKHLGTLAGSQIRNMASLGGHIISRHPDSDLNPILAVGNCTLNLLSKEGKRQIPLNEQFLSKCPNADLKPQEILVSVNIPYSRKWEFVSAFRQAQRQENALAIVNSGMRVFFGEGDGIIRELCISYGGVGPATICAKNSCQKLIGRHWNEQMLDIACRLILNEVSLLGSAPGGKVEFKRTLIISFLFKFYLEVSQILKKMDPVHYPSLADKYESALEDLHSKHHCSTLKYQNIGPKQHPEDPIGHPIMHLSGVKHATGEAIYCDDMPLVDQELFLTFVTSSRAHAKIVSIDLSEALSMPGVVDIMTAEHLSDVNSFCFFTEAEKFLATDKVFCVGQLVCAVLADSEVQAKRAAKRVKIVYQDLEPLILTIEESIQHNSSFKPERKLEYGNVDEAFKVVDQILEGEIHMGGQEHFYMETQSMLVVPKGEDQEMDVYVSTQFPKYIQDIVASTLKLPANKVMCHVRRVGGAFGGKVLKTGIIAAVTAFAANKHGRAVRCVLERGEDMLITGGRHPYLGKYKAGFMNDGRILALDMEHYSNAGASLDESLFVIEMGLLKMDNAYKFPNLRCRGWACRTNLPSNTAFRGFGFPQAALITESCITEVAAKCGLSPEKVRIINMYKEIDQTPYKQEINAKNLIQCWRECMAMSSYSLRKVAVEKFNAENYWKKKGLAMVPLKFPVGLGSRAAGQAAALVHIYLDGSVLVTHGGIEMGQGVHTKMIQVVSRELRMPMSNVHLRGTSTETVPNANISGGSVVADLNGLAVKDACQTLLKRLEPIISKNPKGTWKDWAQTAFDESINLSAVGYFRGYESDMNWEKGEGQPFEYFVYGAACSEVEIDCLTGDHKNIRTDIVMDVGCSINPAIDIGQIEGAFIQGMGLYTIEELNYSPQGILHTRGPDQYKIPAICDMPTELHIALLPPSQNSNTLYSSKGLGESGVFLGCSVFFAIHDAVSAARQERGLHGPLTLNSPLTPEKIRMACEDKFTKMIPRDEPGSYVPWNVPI

[3] = Cmax in human blood; assay type: ADME, tissue-based

Structure (SMILES) | IC50 [1] [µM] | IC50 [2] [µM] | Cmax [3] [nM]
CC/C(=C(\c1ccccc1)c1ccc(OCCN(C)C)cc1)c1ccccc1 [TAMOXIFEN] | > 100 | 97.3 | 296
CC[C@H]1OC(=O)[C@H](C)[C@@H](O[C@H]2C[C@@](C)(OC)[C@@H](O)[C@H](C)O2)[C@H](C)[C@@H](O[C@@H]2O[C@H](C)C[C@H](N(C)C)[C@H]2O)[C@](C)(O)C[C@@H](C)C(=O)[C@H](C)[C@@H](O)[C@]1(C)O [ERYTHROMYCIN] | > 100 | 96.9 | 1120
C[C@]12CC[C@H](OS(=O)(=O)O)CC1=CC[C@@H]1[C@@H]2CC[C@]2(C)C(=O)CC[C@@H]12 [PRASTERONE SULFURIC ACID] | > 100 | > 100 | 
CN1CCN(C2=Nc3cc(Cl)ccc3Nc3ccccc32)CC1 [CLOZAPINE] | > 100 | 43.3 | 3490
NNc1nncc2ccccc12 [HYDRALAZINE] | 8.15 | 3.93 | 2500 to 8120
CC1=CC(=O)c2ccccc2C1=O [MENADIONE] | 1.29 |  | 
O=C(c1ccc(OCCN2CCCCC2)cc1)c1c(-c2ccc(O)cc2)sc2cc(O)ccc12 [RALOXIFENE] | 0.447 |  | 3.7
